In general, IC50 refers to the concentration that inhibits the measured activity by half. Low readings indicate higher potency, high ones lower potency.

One test addresses T1, Kv1.3 potassium channel (Homo sapiens, UniProt P22001).
T1 construct: expressed in transfected cells
As to the kind of experiment: Kv1.3 potassium channel blocker activity, automated whole-cell patch clamp (Patchliner). The class given is cell-based. The procedure, abridged:
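IC50 came from Hill-equation fits of peak and AUC currents from the final pulse at each concentration, normalized to compound-free control. Compounds applied consecutively at 30 nM to 100 μM (up to 0.3% DMSO) to Kv1.3-expressing CHO-K1 cells, P/4 leak subtraction. Pulses were +40 mV, 100 ms, from −90 mV holding, at 0.1 Hz on Patchliner.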

Another test addresses T2, hERG channel (Homo sapiens, UniProt Q12809).
T2 construct: expressed in transfected cells
As to the kind of experiment: hERG electrophysiology, automated whole-cell patch clamp (Patchliner). Format: cell-based. In short, it runs like this: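 Currents were recorded at 0.3 Hz from −80 mV, stepping to +20 mV then −50 mV (300 ms each), in stably transfected CHO-K1 cells. Concentrations (30 nM–100 μM, up to 0.3% DMSO) were added sequentially without washout. IC50 came from Hill fits of control-normalized AUC/peak of each train's final pulse.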
(In general: hERG is a cardiac potassium channel; its block is linked to QT prolongation.)

Where [1] appears, read: CHO-K1 cells stably expressing Kv1.3, 100 ms pulses from -90 mV to +40 mV, 0.1 Hz.
Where [2] appears, read: CHO-K1 cells stably expressing hERG, +20 mV 300 ms, -50 mV 300 ms tail current, 0.3 Hz.
The mark [3] stands for this setting: Kv1.3 potassium channel, whole-cell patch clamp.
[4] abbreviates: hERG channel, whole-cell patch clamp.

T1 sequence (P22001 whole entry): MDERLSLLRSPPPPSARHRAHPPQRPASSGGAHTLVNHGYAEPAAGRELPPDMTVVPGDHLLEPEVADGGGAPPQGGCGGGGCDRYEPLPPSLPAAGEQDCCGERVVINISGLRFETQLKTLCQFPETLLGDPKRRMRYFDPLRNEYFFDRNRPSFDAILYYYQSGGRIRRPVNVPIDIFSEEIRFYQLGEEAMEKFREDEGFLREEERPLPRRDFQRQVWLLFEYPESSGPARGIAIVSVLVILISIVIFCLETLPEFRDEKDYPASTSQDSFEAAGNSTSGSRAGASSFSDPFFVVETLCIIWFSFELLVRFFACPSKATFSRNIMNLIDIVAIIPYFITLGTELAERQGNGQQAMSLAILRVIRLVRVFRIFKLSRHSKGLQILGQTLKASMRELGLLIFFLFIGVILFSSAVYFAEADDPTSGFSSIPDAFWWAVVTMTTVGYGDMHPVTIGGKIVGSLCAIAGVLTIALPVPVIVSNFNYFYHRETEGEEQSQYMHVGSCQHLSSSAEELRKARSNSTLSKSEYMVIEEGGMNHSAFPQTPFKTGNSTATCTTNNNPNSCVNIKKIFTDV
T2 sequence (Q12809 whole entry): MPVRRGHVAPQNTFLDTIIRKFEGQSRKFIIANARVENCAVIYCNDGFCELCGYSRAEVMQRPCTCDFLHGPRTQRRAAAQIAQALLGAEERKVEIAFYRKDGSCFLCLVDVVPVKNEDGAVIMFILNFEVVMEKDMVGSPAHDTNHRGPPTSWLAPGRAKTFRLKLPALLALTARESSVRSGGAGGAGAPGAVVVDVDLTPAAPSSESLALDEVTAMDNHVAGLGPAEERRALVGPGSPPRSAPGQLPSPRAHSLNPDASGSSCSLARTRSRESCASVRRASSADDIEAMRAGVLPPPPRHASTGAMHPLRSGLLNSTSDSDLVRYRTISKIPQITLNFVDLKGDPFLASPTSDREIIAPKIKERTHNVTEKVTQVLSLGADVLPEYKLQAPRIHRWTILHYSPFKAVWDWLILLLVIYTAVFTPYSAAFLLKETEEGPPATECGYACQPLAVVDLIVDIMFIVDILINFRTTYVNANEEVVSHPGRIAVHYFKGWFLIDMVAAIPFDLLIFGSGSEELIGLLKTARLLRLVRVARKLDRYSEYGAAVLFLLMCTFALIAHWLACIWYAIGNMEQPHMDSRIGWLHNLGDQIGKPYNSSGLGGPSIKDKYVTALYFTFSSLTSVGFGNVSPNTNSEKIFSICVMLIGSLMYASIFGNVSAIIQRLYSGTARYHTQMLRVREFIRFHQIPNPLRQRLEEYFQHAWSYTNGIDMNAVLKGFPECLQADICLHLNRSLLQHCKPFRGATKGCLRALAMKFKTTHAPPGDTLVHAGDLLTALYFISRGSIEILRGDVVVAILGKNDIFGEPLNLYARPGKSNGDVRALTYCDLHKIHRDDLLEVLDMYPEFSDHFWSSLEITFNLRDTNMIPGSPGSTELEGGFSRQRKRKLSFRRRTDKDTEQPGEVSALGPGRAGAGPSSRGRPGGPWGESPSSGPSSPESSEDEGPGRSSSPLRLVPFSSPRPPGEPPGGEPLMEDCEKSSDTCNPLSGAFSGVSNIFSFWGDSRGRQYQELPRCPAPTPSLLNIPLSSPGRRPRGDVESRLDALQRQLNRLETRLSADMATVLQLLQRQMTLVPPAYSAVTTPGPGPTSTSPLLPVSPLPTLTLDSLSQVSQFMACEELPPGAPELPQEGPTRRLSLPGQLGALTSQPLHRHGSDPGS

On to `COC[C@H](O)C(=O)N1CC(=O)N2CC[C@@H](c3c(O)ccc(Cl)c3Cl)C[C@H]2C1` [Compound 44, (8R,9aS)-8-(2,3-dichloro-6-hydroxyphenyl)-2-[(2S)-2-hydroxy-3-methoxypropanoyl]-hexahydro-1H-pyrido[1,2-a]pyrazin-4-one], for which the figures for the IC50 against Kv1.3 potassium channel (setting [1]) and on hERG channel (setting [2]) were less than 1 µM and greater than 30 µM, respectively.
Consider `O=C1C[C@@H](N2CC[C@H](O)C2)C[C@@H]2C[C@H](c3c(O)ccc(Cl)c3Cl)CN12` (single isomer, unassigned) [Compound 194], for which the figures for the IC50 against Kv1.3 potassium channel (setting [3]) and on hERG channel (setting [4]) were less than 1 µM and greater than 30 µM, respectively.
For `CNCC1OC(=O)N2C[C@@H](c3c(O)ccc(Cl)c3Cl)C[C@@H]12` (stereo partly drawn) [Compound 281, (6R,7aS)-6-(2,3-dichloro-6-hydroxyphenyl)-1-[(methylamino)methyl]-tetrahydro-1H-pyrrolo[1,2-c][1,3]oxazol-3-one] the same measures were less than 1 µM and less than 30 µM.
Consider `O=C1C[C@@H](O)C[C@@H]2C[C@H](c3c(O)ccc(Cl)c3Cl)CN12` (single isomer, unassigned; isomer 1) [Compound 61], for which the IC50 was less than 1 µM on Kv1.3 potassium channel (setting [1]) and greater than 30 µM against hERG channel (setting [2]).
For `O=C(CO)N1CC(=O)N2CC[C@@H](c3c(O)cc(Cl)c(Cl)c3Cl)C[C@H]2C1` [Compound 38, (8R,9aS)-2-(2-hydroxyacetyl)-8-(2,3,4-trichloro-6-hydroxyphenyl)octahydro-4H-pyrido[1,2-a]pyrazin-4-one] the same measures were less than 1 µM and greater than 30 µM.
As for `CN[C@H]1CC(=O)N2C[C@@H](c3c(O)ccc(Cl)c3Cl)C[C@H]2C1` (single isomer, unassigned) [Compound 199], the IC50 at Kv1.3 potassium channel (setting [3]) is less than 1 µM; at hERG channel (setting [4]) it was greater than 30 µM.
Regarding `O=C1O[C@@H](CO)[C@@H]2C[C@H](c3c(O)ccc(Cl)c3Cl)CN12` (single isomer, unassigned) [Compound 253], the IC50 was less than 1 µM at Kv1.3 potassium channel (setting [3]) and greater than 30 µM on hERG channel (setting [4]).
Consider `O=C1C[C@H](c2cn[nH]c2)C[C@@H]2C[C@H](c3c(O)ccc(Cl)c3Cl)CN12` (single isomer, unassigned) [Compound 216], for which the IC50 is less than 1 µM against Kv1.3 potassium channel (setting [3]) and less than 10 µM against hERG channel (setting [4]).
Consider `O=C1CNC[C@@H]2C[C@H](c3c(O)ccc(Cl)c3Cl)CCN12` [Compound 15], for which the IC50 against Kv1.3 potassium channel (setting [1]) is less than 1 µM; at hERG channel (setting [2]), less than 30 µM.
Turning to `C[C@@H](CO)N1CC(=O)N2C[C@@H](c3c(O)ccc(Cl)c3Cl)C[C@H]2C1` (single isomer, unassigned; isomer 2) [Compound 117], the IC50 at Kv1.3 potassium channel (setting [3]) is less than 1 µM; at hERG channel (setting [4]), greater than 30 µM.
In the case of `O=C([C@@H](O)CO)N1CC(=O)N2CC[C@@H](c3c(O)ccc(Cl)c3Cl)C[C@H]2C1` [Compound 23, (8R,9aS)-8-(2,3-dichloro-6-hydroxyphenyl)-2-[(2S)-2,3-dihydroxypropanoyl]-hexahydro-1H-pyrido[1,2-a]pyrazin-4-one], the IC50 is less than 1 µM against Kv1.3 potassium channel (setting [1]) and greater than 30 µM against hERG channel (setting [2]).
Regarding `O=C1CN(C2COCC2O)C[C@@H]2C[C@H](c3c(O)ccc(Cl)c3Cl)CN12` (stereo partly drawn) [Compound 149, (7R,8aS)-7-(2,3-dichloro-6-hydroxyphenyl)-2-(4-hydroxyoxolan-3-yl)-hexahydropyrrolo[1,2-a]pyrazin-4-one], the IC50 was less than 1 µM against Kv1.3 potassium channel (setting [3]) and greater than 30 µM against hERG channel (setting [4]).
For `O=C(C[C@H](O)C(F)F)N1CC(=O)N2C[C@@H](c3c(O)ccc(Cl)c3Cl)C[C@H]2C1` [Compound 75, (7R,8aS)-7-(2,3-dichloro-6-hydroxyphenyl)-2-[(3S)-4,4-difluoro-3-hydroxybutanoyl] hexahydropyrrolo [1,2-a]pyrazin-4-one], in that order: less than 1 µM and greater than 30 µM.
Take `O=C1O[C@H]([C@H](O)CO)[C@@H]2C[C@H](c3c(O)ccc(Cl)c3Cl)CN12` (single isomer, unassigned) [Compound 263]: the IC50 against Kv1.3 potassium channel (setting [3]) was less than 1 µM; at hERG channel (setting [4]), greater than 30 µM.
As to `O=C1CN([C@@H]2CCNC2)C[C@@H]2C[C@H](c3c(O)ccc(Cl)c3Cl)CN12` [Compound 143, (7R,8aS)-7-(2,3-dichloro-6-hydroxyphenyl)-2-[(3R)-pyrrolidin-3-yl]-hexahydropyrrolo [1,2-a]pyrazin-4-one], the IC50 is less than 1 µM against Kv1.3 potassium channel (setting [3]) and greater than 30 µM on hERG channel (setting [4]).
In the case of `CC[C@@H](O)CC(=O)N1CC(=O)N2C[C@@H](c3c(O)ccc(Cl)c3Cl)C[C@H]2C1` [Compound 69, (7R,8aS)-7-(2,3-dichloro-6-hydroxyphenyl)-2-[(3R)-3-hydroxypentanoyl]-hexahydropyrrolo [1,2-a]pyrazin-4-one], the IC50 is less than 1 µM against Kv1.3 potassium channel (setting [3]) and greater than 30 µM against hERG channel (setting [4]).
For `O=C1C[C@H](O)[C@H](O)[C@@H]2C[C@H](c3c(O)ccc(Cl)c3Cl)CN12` (relative stereo) [Compound 225, (7S,8R)-rel-(2R, 8aS)-2-(2,3-dichloro-6-hydroxyphenyl)-7,8-dihydroxy-hexahydro-1H-indolizin-5-one], the half-maximal inhibitory concentration (IC50) was less than 1 µM against Kv1.3 potassium channel (setting [3]) and greater than 30 µM against hERG channel (setting [4]).
Take `CCNC(=O)N1CC(=O)N2C[C@@H](c3c(O)ccc(Cl)c3Cl)C[C@H]2C1` [Compound 35, (7R,8aS)-7-(2,3-dichloro-6-hydroxyphenyl)-N-ethyl-4-oxo-hexahydropyrrolo[1,2-a]pyrazine-2-carboxamide]: the IC50 on Kv1.3 potassium channel (setting [1]) was less than 1 µM; on hERG channel (setting [2]), greater than 30 µM.
Regarding `CN(CCO)[C@H]1CC(=O)N2C[C@@H](c3c(O)ccc(Cl)c3Cl)C[C@H]2C1` (single isomer, unassigned) [Compound 205], the IC50 is less than 1 µM against Kv1.3 potassium channel (setting [3]) and greater than 30 µM on hERG channel (setting [4]).
For `O=C1CN(CC(O)CO)C[C@@H]2C[C@H](c3c(O)ccc(Cl)c3Cl)CN12` (stereo partly drawn) [Compound 112, (7R,8aS)-7-(2,3-dichloro-6-hydroxyphenyl)-2-(2,3-dihydroxypropyl)-hexahydropyrrolo [l,2-a]pyrazin-4-one], in that order: less than 1 µM and greater than 30 µM.
For `O=C1CN(C2CC[C@@H](O)[C@H]2O)C[C@@H]2C[C@H](c3c(O)ccc(Cl)c3Cl)CN12` (relative stereo) [Compound 136, (7R,8aS)-7-(2,3-dichloro-6-hydroxyphenyl)-2-[(2S,3R)-rel-2,3-dihydroxycyclopentyl]-hexahydropyrrolo [1,2-a]pyrazin-4-one], in that order: less than 1 µM and greater than 30 µM.
For `O=C(C(CO)CO)N1CC(=O)N2C[C@@H](c3c(O)ccc(Cl)c3Cl)C[C@H]2C1` [Compound 65, (7R,8aS)-7-(2,3-dichloro-6-hydroxyphenyl)-2-[3-hydroxy-2-(hydroxymethyl)propanoyl]-hexa-hydropyrrolo[1,2-a]pyrazin-4-one] the same measures were less than 1 µM and greater than 30 µM.
With `CC[C@H](O)C(=O)N1CC(=O)N2CC[C@@H](c3c(O)ccc(Cl)c3Cl)C[C@H]2C1` [Compound 9, (8R,9aS)-8-(2,3-dichloro-6-hydroxyphenyl)-2-[(2S)-2-hydroxybutanoyl]-hexahydro-1H-pyrido[1,2-a]pyrazin-4-one], the IC50 was less than 1 µM against Kv1.3 potassium channel (setting [1]) and greater than 30 µM at hERG channel (setting [2]).
In the case of `O=C1O[C@H]([C@@H](O)CO)[C@@H]2C[C@H](c3c(O)ccc(Cl)c3Cl)CN12` (single isomer, unassigned) [Compound 262], the IC50 was less than 1 µM on Kv1.3 potassium channel (setting [3]) and greater than 30 µM against hERG channel (setting [4]).
In the case of `O=C1[C@@H](CO)OC[C@@H]2C[C@H](c3c(O)ccc(Cl)c3Cl)CCN12` (single isomer, unassigned) [Compound 52], the IC50 is less than 1 µM against Kv1.3 potassium channel (setting [1]) and greater than 30 µM at hERG channel (setting [2]).
With `O=C1CN(C(CO)CO)C[C@@H]2C[C@H](c3c(O)ccc(Cl)c3Cl)CN12` [Compound 124, (7R,8aS)-7-(2,3-dichloro-6-hydroxyphenyl)-2-(1,3-dihydroxypropan-2-yl)-hexahydropyrrolo [1,2-a]pyrazin-4-one], the IC50 on Kv1.3 potassium channel (setting [3]) is less than 1 µM; against hERG channel (setting [4]), greater than 30 µM.
For the molecule `O=C(C[C@@H](O)CO)N1CC(=O)N2C[C@@H](c3c(O)ccc(Cl)c3Cl)C[C@H]2C1` [Compound 78, (7R,8aS)-7-(2,3-dichloro-6-hydroxyphenyl)-2-[(3R)-3,4-dihydroxybutanoyl]-hexahydropyrrolo [1,2-a]pyrazin-4-one], the IC50 on Kv1.3 potassium channel (setting [3]) was less than 1 µM; at hERG channel (setting [4]), greater than 30 µM.
For `CN(CCO)[C@@H]1CC(=O)N2C[C@@H](c3c(O)ccc(Cl)c3Cl)C[C@H]2C1` (single isomer, unassigned) [Compound 204], in that order: less than 1 µM and greater than 30 µM.
For `O=C1C[C@@H](CO)C[C@@H]2C[C@H](c3c(O)ccc(Cl)c3Cl)CN12` (single isomer, unassigned) [Compound 237], in that order: less than 1 µM and greater than 30 µM.
Take `O=C1CN(C2CN(CCO)C2)C[C@@H]2C[C@H](c3c(O)ccc(Cl)c3Cl)CN12` [Compound 134, (7R,8aS)-7-(2,3-dichloro-6-hydroxyphenyl)-2-[1-(2-hydroxyethyl)azetidin-3-yl]-hexahydropyrrolo [1,2-a]pyrazin-4-one]: the IC50 against Kv1.3 potassium channel (setting [3]) is less than 1 µM; against hERG channel (setting [4]), greater than 30 µM.
Take `CCC(=O)N1CC(=O)N2C[C@@H](c3c(O)ccc(Cl)c3Cl)C[C@H]2C1` [Compound 8, (7R,8aS)-7-(2,3-dichloro-6-hydroxyphenyl)-2-pro-pionylhexahydropyrrolo [1,2-a]pyrazin-4(1H)-one]: the IC50 against Kv1.3 potassium channel (setting [1]) was less than 1 µM; against hERG channel (setting [2]), less than 30 µM.
